{"source": "paper PMC11742723", "about": "“The clinical-stage drug BTZ-043 accumulates in murine tuberculosis lesions and efficiently acts against Mycobacterium tuberculosis” (Nature Communications, 2025)", "key": {"Mtb H37Rv [1]": {"system": "Mtb H37Rv", "experiment": "BTZ-043 dose escalation study in Mtb-infected BALB/c mice (pulmonary CFU)", "format": "in vivo, Mycobacterium tuberculosis", "details": "for pulmonary CFU counts / mouse: individual female mice"}, "Mtb H37Rv [2]": {"system": "Mtb H37Rv", "experiment": "BTZ-043 dose-fractionation study in Mtb-infected BALB/c mice (lung CFU)", "format": "in vivo, Mycobacterium tuberculosis", "details": "for pulmonary CFU counts / mouse: 6 weeks of treatment, individual female mice"}, "Mtb H37Rv [3]": {"system": "Mtb H37Rv", "experiment": "BTZ-043 treatment for 10 days of Mtb-infected IL-13tg mice (pulmonary CFU)", "format": "in vivo, Mycobacterium tuberculosis"}, "Mtb H37Rv [4]": {"system": "Mtb H37Rv", "experiment": "Prolonged BTZ-043 treatment of Mtb-infected IL-13tg mice (pulmonary CFU)", "format": "in vivo, Mycobacterium tuberculosis"}, "Mtb": {"system": "Mtb", "experiment": "Lesional efficacy: LCM of necrotic core and Mtb 16S rRNA molecular bacterial load assay (MBLA)", "format": "in vivo, Mycobacterium tuberculosis", "details": "for CFU / mm3 (MBLA): BTZ-043 [250 mg/kg], individual mice, 250 mg/kg"}, "[5]": {"details": "BALB/c, mouse, in vivo"}, "[6]": {"details": "BALB/c, 8 weeks, 3 highest doses (250-1000 mg/kg/day)"}, "[7]": {"details": "IL-13tg mice, 250 mg/kg/day, 10 days"}}, "note": "Several values for one entry are separate records, joined by “and”; a condition that tells them apart may be missing. Identical values can stand only once. Like-named read-outs stand apart in the source and are kept apart here."}
{"smiles": "C[C@H]1COC2(CCN(c3nc(=O)c4cc(C(F)(F)F)cc([N+](=O)[O-])c4s3)CC2)O1", "note": "[BTZ-043]", "values": [{"measurement": "pulmonary CFU counts / mouse", "setting": "Mtb H37Rv [1]; 50 mg/kg BTZ-043, 4 weeks of treatment", "result": "555882 CFU counts / mouse and 499154 CFU counts / mouse and 2156250 CFU counts / mouse and 558800 CFU counts / mouse and 525176 CFU counts / mouse and 501563 CFU counts / mouse"}, {"measurement": "pulmonary CFU counts / mouse", "setting": "Mtb H37Rv [1]; 50 mg/kg BTZ-043, 6 weeks of treatment", "result": "151667 CFU counts / mouse and 250364 CFU counts / mouse and 426300 CFU counts / mouse and 300706 CFU counts / mouse and 257455 CFU counts / mouse and 439714 CFU counts / mouse"}, {"measurement": "pulmonary CFU counts / mouse", "setting": "Mtb H37Rv [1]; 50 mg/kg BTZ-043, 8 weeks of treatment", "result": "287143 CFU counts / mouse and 182471 CFU counts / mouse and 166050 CFU counts / mouse and 110400 CFU counts / mouse and 84000 CFU counts / mouse"}, {"measurement": "pulmonary CFU counts / mouse", "setting": "Mtb H37Rv [1]; 100 mg/kg BTZ-043, 4 weeks of treatment", "result": "416625 CFU counts / mouse and 429231 CFU counts / mouse and 396000 CFU counts / mouse and 458571 CFU counts / mouse and 415800 CFU counts / mouse and 472500 CFU counts / mouse"}, {"measurement": "pulmonary CFU counts / mouse", "setting": "Mtb H37Rv [1]; 100 mg/kg BTZ-043, 6 weeks of treatment", "result": "34200 CFU counts / mouse and 61091 CFU counts / mouse and 157500 CFU counts / mouse and 207692 CFU counts / mouse and 197308 CFU counts / mouse and 173438 CFU counts / mouse"}, {"measurement": "pulmonary CFU counts / mouse", "setting": "Mtb H37Rv [1]; 100 mg/kg BTZ-043, 8 weeks of treatment", "result": "156000 CFU counts / mouse and 66000 CFU counts / mouse and 39129 CFU counts / mouse and 101769 CFU counts / mouse and 139765 CFU counts / mouse and 67765 CFU counts / mouse"}, {"measurement": "pulmonary CFU counts / mouse", "setting": "Mtb H37Rv [1]; 250 mg/kg BTZ-043, 4 weeks of treatment", "result": "634800 CFU counts / mouse and 254308 CFU counts / mouse and 513000 CFU counts / mouse and 409500 CFU counts / mouse and 484500 CFU counts / mouse and 249923 CFU counts / mouse"}, {"measurement": "pulmonary CFU counts / mouse", "setting": "Mtb H37Rv [1]; 250 mg/kg BTZ-043, 6 weeks of treatment", "result": "49400 CFU counts / mouse and 35888 CFU counts / mouse and 49309 CFU counts / mouse and 39877 CFU counts / mouse and 52521 CFU counts / mouse and 45750 CFU counts / mouse"}, {"measurement": "pulmonary CFU counts / mouse", "setting": "Mtb H37Rv [1]; 250 mg/kg BTZ-043, 8 weeks of treatment", "result": "25080 CFU counts / mouse and 15273 CFU counts / mouse and 21930 CFU counts / mouse and 15218 CFU counts / mouse and 42694 CFU counts / mouse and 15750 CFU counts / mouse"}, {"measurement": "pulmonary CFU counts / mouse", "setting": "Mtb H37Rv [1]; 500 mg/kg BTZ-043, 4 weeks of treatment", "result": "154286 CFU counts / mouse and 324000 CFU counts / mouse and 360000 CFU counts / mouse and 251750 CFU counts / mouse and 312857 CFU counts / mouse and 230769 CFU counts / mouse"}, {"measurement": "pulmonary CFU counts / mouse", "setting": "Mtb H37Rv [1]; 500 mg/kg BTZ-043, 6 weeks of treatment", "result": "54000 CFU counts / mouse and 150231 CFU counts / mouse and 60750 CFU counts / mouse and 101769 CFU counts / mouse and 56100 CFU counts / mouse and 15346 CFU counts / mouse"}, {"measurement": "pulmonary CFU counts / mouse", "setting": "Mtb H37Rv [1]; 500 mg/kg BTZ-043, 8 weeks of treatment", "result": "13200 CFU counts / mouse and 24750 CFU counts / mouse and 35550 CFU counts / mouse and 13714 CFU counts / mouse and 20250 CFU counts / mouse and 14657 CFU counts / mouse"}, {"measurement": "pulmonary CFU counts / mouse", "setting": "Mtb H37Rv [1]; 1000 mg/kg BTZ-043, 4 weeks of treatment", "result": "228000 CFU counts / mouse and 325600 CFU counts / mouse and 166909 CFU counts / mouse and 226154 CFU counts / mouse and 205800 CFU counts / mouse and 140000 CFU counts / mouse"}, {"measurement": "pulmonary CFU counts / mouse", "setting": "Mtb H37Rv [1]; 1000 mg/kg BTZ-043, 6 weeks of treatment", "result": "42075 CFU counts / mouse and 43131 CFU counts / mouse and 54450 CFU counts / mouse and 36450 CFU counts / mouse and 58900 CFU counts / mouse and 98571 CFU counts / mouse"}, {"measurement": "pulmonary CFU counts / mouse", "setting": "Mtb H37Rv [1]; 1000 mg/kg BTZ-043, 8 weeks of treatment", "result": "9208 CFU counts / mouse and 16615 CFU counts / mouse and 22100 CFU counts / mouse and 11500 CFU counts / mouse and 17738 CFU counts / mouse and 28600 CFU counts / mouse"}, {"measurement": "reduction of bacterial burden in comparison to the vehicle control group", "setting": "Mtb H37Rv [1]; BALB/c lungs, 4 weeks of therapy, all doses 50-1000 mg/kg/day microcrystalline BTZ-043, oral 5 days/week", "result": "> 0.7", "unit": "log10 CFU"}, {"measurement": "antimycobacterial activity compared to INH (25 mg/kg/day)", "setting": "Mtb H37Rv [1]; BALB/c, 6 weeks, 50 mg/kg/day", "result": "reduced"}, {"measurement": "antimycobacterial activity compared to INH (25 mg/kg/day)", "setting": "Mtb H37Rv [1]; BALB/c, 6 weeks, 100 mg/kg/day", "result": "comparable"}, {"measurement": "antimycobacterial activity compared to INH (25 mg/kg/day)", "setting": "Mtb H37Rv [1]; BALB/c, 6 weeks, 250, 500 and 1000 mg/kg/day", "result": "significantly greater antimycobacterial activity than the first-line drug INH"}, {"measurement": "efficacy compared to INH therapy", "setting": "Mtb H37Rv [1]; [6]", "result": "significantly increased efficacy"}, {"measurement": "pulmonary bacterial burden lower than the vehicle control group", "setting": "Mtb H37Rv [1]; [6]", "result": "more than 2.4 log10 CFU"}, {"measurement": "lowest dose with maximum effect (LME)", "setting": "Mtb H37Rv [1]; mouse model of TB (BALB/c), microcrystalline BTZ-043", "result": 250, "unit": "mg/kg/day"}, {"measurement": "pulmonary CFU counts / mouse", "setting": "Mtb H37Rv [2]; 2.5 mg/kg BTZ-043 BID", "result": "20001 CFU counts / mouse and 18001 CFU counts / mouse and 34001 CFU counts / mouse and 55001 CFU counts / mouse"}, {"measurement": "pulmonary CFU counts / mouse", "setting": "Mtb H37Rv [2]; 2.5 mg/kg BTZ-043 QD", "result": "50001 CFU counts / mouse and 110001 CFU counts / mouse and 82501 CFU counts / mouse"}, {"measurement": "pulmonary CFU counts / mouse", "setting": "Mtb H37Rv [2]; 5 mg/kg BTZ-043 QD", "result": "160001 CFU counts / mouse and 92501 CFU counts / mouse"}, {"measurement": "CFU reduction compared to the untreated control", "setting": "Mtb H37Rv [2]; BALB/c lungs, 250 mg/kg QD microcrystalline BTZ-043, 6 weeks", "result": 3.7, "unit": "log10 CFU"}, {"measurement": "effect of fractionation of the dose into two administrations (BID vs QD, identical total dose)", "setting": "Mtb H37Rv [2]; amorphous BTZ-043, 5 to 50 mg/kg/day, 6 weeks", "result": "modest, but consistent, trend towards increased mycobactericidal activity"}, {"measurement": "pulmonary CFU / mouse", "setting": "Mtb H37Rv [3]; BTZ-043 [250 mg/kg], 2 weeks of therapy, individual mice, female and male, 250 mg/kg", "result": "22635294 CFU / mouse and 34160000 CFU / mouse and 22750000 CFU / mouse and 19564286 CFU / mouse and 20000000 CFU / mouse"}, {"measurement": "reduction of the bacterial load versus start of treatment", "setting": "Mtb H37Rv [3]; IL-13tg mice lungs, 250 mg/kg/day, 10 days", "result": 0.9, "unit": "log10 CFU"}, {"measurement": "reduction of the bacterial burden", "setting": "Mtb H37Rv [3]; IL-13tg mice lungs, 250 mg/kg/day, 10 days, versus before treatment", "result": 86, "unit": "%"}, {"measurement": "bacterial burden after therapy as share of the initial CFU counts", "setting": "Mtb H37Rv [3]; [7]", "result": 13.8, "unit": "%"}, {"measurement": "mean pulmonary bacterial burden after treatment", "setting": "Mtb H37Rv [3]; [7]", "result": "4.8 × 10^7 CFU"}, {"measurement": "pulmonary bacterial burden after therapy", "setting": "Mtb H37Rv [3]; IL-13tg mice, 250 mg/kg/day, 10 days, mean", "result": 7.69, "unit": "log10 CFU"}, {"measurement": "pulmonary CFU counts / mouse", "setting": "Mtb H37Rv [3]; IL-13tg mice, female, 10 days BTZ-043 250 mg/kg, 250 mg/kg", "result": "22032000 and 27394286"}, {"measurement": "pulmonary CFU / mouse", "setting": "Mtb H37Rv [4]; BTZ-043 [250 mg/kg], 4-6 weeks of therapy, individual mice, female and male, 250 mg/kg", "result": "823500 CFU / mouse and 616966 CFU / mouse and 3482791 CFU / mouse and 4043721 CFU / mouse and 7632000 CFU / mouse"}, {"measurement": "reduction of the pulmonary bacterial burden compared to the vehicle group", "setting": "Mtb H37Rv [4]; IL-13tg mice, 250 mg/kg 5 times a week, prolonged therapy (4 to 6 weeks)", "result": "more than 2 log10 CFU"}, {"measurement": "CFU / mm3 (MBLA)", "setting": "Mtb; 2 weeks of therapy", "result": "322664 CFU / mm3 and 2329437 CFU / mm3"}, {"measurement": "CFU / mm3 (MBLA)", "setting": "Mtb; 4-6 weeks of therapy", "result": "228171 CFU / mm3 and 91947 CFU / mm3 and 205657 CFU / mm3"}, {"measurement": "Mtb 16S rRNA expression in the necrotic center compared to the vehicle group", "setting": "Mtb; IL-13tg mice, 250 mg/kg 5 times a week, 2 weeks of treatment", "result": "decreased"}, {"measurement": "bacterial load in the necrotic center", "setting": "Mtb; IL-13tg mice, 250 mg/kg 5 times a week, further course of therapy (4 to 6 weeks)", "result": "strongly reduced"}, {"measurement": "reduction of bacterial burden in necrotic areas of granulomas (Mtb 16S rRNA)", "setting": "Mtb; IL-13tg mice, LCM-isolated necrotic areas", "result": 2, "unit": "log10"}, {"measurement": "AUC at which BTZ-043total exposure reaches saturation", "setting": "[5]", "result": "~30,000 h·ng/mL"}, {"measurement": "Cmax at which BTZ-043total exposure reaches saturation", "setting": "[5]", "result": "around 8000 ng/mL"}, {"measurement": "Tmax", "setting": "[5]", "result": "30 to 60", "unit": "min"}, {"measurement": "AUCinf", "setting": "[5]; po, 2.5 mg/kg/day", "result": 666, "unit": "ng·h/mL"}, {"measurement": "Cmax", "setting": "[5]; po, 2.5 mg/kg/day", "result": 520, "unit": "ng/mL"}, {"measurement": "Tmax", "setting": "[5]; po, 2.5 mg/kg/day", "result": 30, "unit": "min"}]}
